Assay results as given in patent US9975861B2, “Dual inhibitor compounds for use in the treatment of neurodegenerative disorders and alzheimer's disease” (FONDAZIONE ISTITUTO ITALIANO DI TECNOLOGIA, priority 2014, dated 2018).

Columns and labels:
[1] = test system: triggering receptor expressed on myeloid cells 2 (TREM2); experiment: Western blot analysis of TREM2 (M2 marker) in LPS-treated microglia cells; format: cell-based, rat; conditions: LPS 100 ng/mL, 24 hours co-treatment; microglia cells (FIG. 5c)
Procedure: Mixed glial cell cultures were prepared from cerebral cortex of newborn Wistar rats (Rattus norvegicus), as previously described [Monti, B.; D'Alessandro, C.; Farini, V.; Bolognesi, A.; Polazzi, E.; Contestabile, A.; Stirpe, F.; Battelli, M. G. In vitro and in vivo toxicity of type 2 ribosome-inactivating proteins lanceolin and stenodactylin on glial and neuronal cells. Neurotoxicology 2007, 28, 637-644]. Briefly, brain tissue was cleaned from meninges, trypsinized for 15 minutes at 37° C. and, after mechanical dissociation, the cell suspension was washed and plated on poly-L-lysine (Sigma-Aldrich, St. Louis, Mo., USA, 10 μg/mL) coated flasks (75 cm^2). Mixed glial cells were cultured for 10-13 days in Basal Medium Eagle (BME, Life technologies Ltd, Paisley, UK) supplemented with 100 mL/L heat-inactivated FBS (Life technologies), 2 mmol/L glutamine (Sigma-Aldrich) and 100 μmol/L gentamicin sulfate (Sigma-Aldrich).
Microglial cells were harvested from mixed glial cell cultures by mechanical shaking, resuspended in fresh medium without serum and plated on uncoated 35 mm Ø dishes at a density of 1.5×10^6 cells/1.5 mL medium/well for western blot analysis or on 96 wells at 1×10^5 cells/0.2 mL medium/well for MTT assay. […]
J. Biol. Chem. 1951, 193, 265-275]. […] Labelled proteins were detected by using the enhanced chemiluminescence method (ECL; Bio-RAD). […]

β-secretase (BACE-1) = β-secretase (BACE-1) (Homo sapiens (Human), UniProt P56817); experiment: Inhibition of BACE-1 (fluorogenic APP-mimicking peptide substrate); conditions: BACE-1 IC50 (μM), substrate 3 μM, 1 hour pre-incubation at rt, 15 minutes at 37° C.
Procedure: β-secretase (BACE-1, Sigma-Aldrich) inhibition studies were performed by employing a peptide mimicking APP sequence as substrate (Methoxycoumarin-[sequence]dinitrophenyl, M-2420, Bachem, Germany). The following procedure was employed: 5 μL of test compounds (or DMSO, if preparing a control well) were pre-incubated with 175 μL of enzyme (in 20 mM sodium acetate containing 3-[(3-Cholamidopropyl)dimethylammonio]-1-propanesulfonate (CHAPS) 0.1% w/v) for 1 hour at rt. The substrate (3 μM, final concentration) was then added and left to react for 15 minutes at 37° C. The fluorescence signal was read at λem=405 nm (λexc=320 nm) using a Fluoroskan Ascent. […] The fluorescence intensities with and without inhibitor were compared and the percent inhibition due to the presence of test compounds was calculated. The background signal was measured in control wells containing all the reagents, except BACE-1 and subtracted. The % inhibition due to the presence of increasing test compound concentration was calculated by the following expression: 100−(IFi/IFo×100) where IFi and IFo are the fluorescence intensities obtained for BACE-1 in the presence and in the absence of inhibitor, respectively. […] The linear regression parameters were determined and the IC50 extrapolated (GraphPad Prism 4.0, GraphPad Software Inc.).

Human recombinant GSK-3β = Human recombinant GSK-3β (Homo sapiens (Human), UniProt P49841); experiment: Inhibition of GSK-3β (Kinase-Glo luminescent kinase assay); format: biochemical; conditions: 1 μM ATP, 25 μM substrate, 30 minutes at 30° C.
Procedure: Human recombinant GSK-3β was purchased from Millipore (Millipore Iberica S.A.U.) The prephosphorylated polypeptide substrate was purchased from Millipore (Millipore Iberica SAU). Kinase-Glo Luminescent Kinase Assay was obtained from Promega (Promega Biotech Iberica, SL). ATP and all other reagents were from Sigma-Aldrich. Assay buffer contained 50 mM 4-(2-hydroxyethyl)-1-piperazineethanesulfonic acid (HEPES) (pH 7.5), 1 mM ethylenediaminetetraacetic acid (EDTA), 1 mM ethylene glycol tetraacetic acid (EGTA), and 15 mM magnesium acetate. The method developed by Baki was followed [Baki et al. Assay and Drug Development Technologies 2007, 5(1),75-83] to analyze the inhibition of GSK-3β. Kinase-Glo assays were performed in assay buffer using white 96-well plates. In a typical assay, 10 μL (10 μM) of test compound (dissolved in DMSO at 1 mM concentration and diluted in advance in assay buffer to the desired concentration) and 10 μL (20 ng) of enzyme were added to each well followed by 20 μL of assay buffer containing 25 μM substrate and 1 μM adenosine triphosphate (ATP). […] After a 30 minutes incubation at 30° C., the enzymatic reaction was stopped with 40 μL of Kinase-Glo reagent. Glow-type luminescence was recorded after 10 minutes using a Fluoroskan Ascent multimode reader.
The activity is proportional to the difference of the total and consumed ATP.

Chain of β-secretase (BACE-1) (P56817 46-501): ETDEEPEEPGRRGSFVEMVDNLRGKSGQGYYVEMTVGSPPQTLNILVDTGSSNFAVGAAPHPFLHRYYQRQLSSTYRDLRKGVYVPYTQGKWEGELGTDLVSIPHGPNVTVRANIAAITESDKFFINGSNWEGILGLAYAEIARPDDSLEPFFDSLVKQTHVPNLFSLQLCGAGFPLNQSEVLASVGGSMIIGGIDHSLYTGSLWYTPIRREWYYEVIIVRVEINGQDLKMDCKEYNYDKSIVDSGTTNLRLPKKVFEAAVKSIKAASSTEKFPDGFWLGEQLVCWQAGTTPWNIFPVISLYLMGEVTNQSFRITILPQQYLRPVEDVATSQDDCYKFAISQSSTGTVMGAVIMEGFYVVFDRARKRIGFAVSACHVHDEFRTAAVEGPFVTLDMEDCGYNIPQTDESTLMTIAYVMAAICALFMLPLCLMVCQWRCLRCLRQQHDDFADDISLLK
Chain of Human recombinant GSK-3β (P49841 whole entry): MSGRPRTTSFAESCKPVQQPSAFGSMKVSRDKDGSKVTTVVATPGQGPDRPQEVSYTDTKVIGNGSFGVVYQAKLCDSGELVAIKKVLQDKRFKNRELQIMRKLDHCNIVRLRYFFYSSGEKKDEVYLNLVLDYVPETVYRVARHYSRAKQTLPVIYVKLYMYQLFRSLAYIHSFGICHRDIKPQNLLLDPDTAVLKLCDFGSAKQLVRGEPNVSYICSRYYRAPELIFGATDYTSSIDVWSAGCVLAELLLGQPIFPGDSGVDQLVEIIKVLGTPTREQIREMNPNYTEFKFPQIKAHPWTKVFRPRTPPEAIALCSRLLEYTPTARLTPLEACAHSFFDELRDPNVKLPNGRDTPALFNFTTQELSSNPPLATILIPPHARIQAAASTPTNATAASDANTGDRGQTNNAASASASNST

| IC50 (β-secretase (BACE-1)) | IC50 (Human recombinant GSK-3β) | SMILES | TREM2 expression reduced by LPS [1] |
| --- | --- | --- | --- |
| – | – | CCNC1=NC(c2ccc(F)cc2)NC(=O)N1 (racemic) [Example 3, 6-(ethylamino)-4-(4-fluorophenyl)-3,4-dihydro-1,3,5-triazin-2(1H)-one] | restored |
| 36.8 ± 9.85 µM | 4.34 ± 0.63 µM | CCCNC1=NC(c2ccc(F)cc2)NC(=O)N1 (stereo not shown) [Example 6, 4-(4-fluorophenyl)-6-(propylamino)-3,4-dihydro-1,3,5-triazin-2(1H)-one] | restored |
